Source: patent US20070049564A1 (Wyeth, priority 2005, published 2007)
Converted amounts (≈) assume the structure as drawn. Like-named read-outs stand apart in the source and are kept apart here.

Tests used:
[1] = test system: S. aureus GC 1131; test: MIC, broth microdilution
[2] = test system: S. aureus GC 6466; test: MIC, broth microdilution; settings: Staphylococcus aureus
[3] = test system: S. aureus GC 1079; test: MIC, broth microdilution
[4] = test system: E. coli GC 2234; test: MIC, broth microdilution; settings: Escherichia coli, GC2234, E. coli GC 2234
[5] = test system: S. pyogenes GC 4563; test: MIC, broth microdilution
Description: (§1) Antimicrobial susceptibility testing. The in vitro activities of the antibiotics are determined by the broth microdilution method as recommended by the National Committee for Clinical Laboratory Standards (NCCLS) (1). Mueller-Hinton II broth (MHBII)(BBL Cockeysville, Md.) is the medium employed in the testing procedures. Microtiter plates containing serial dilutions of each antimicrobial agent are inoculated with each organism to yield the appropriate density (10^5 CFU/ml) in a 100 μl final volume. The plates are incubated for 18-22 hours at 35° C. in ambient air. […] Standard Pharmacological Test Procedures
(§2) Presented in Tables I-XIII are representative compounds of Formula I which were evaluated against a panel of 40 selected gram-positive and gram-negative bacteria strains by pre-incubation in water, mouse serum or human serum. Representative compounds were first incubated in mouse serum for an hour prior to the in vitro testing against a panel of selected gram-positive and gram-negative bacteria strains. All compounds were also pre-incubated in water for an hour prior to testing as control. Representative compounds of Formula I were incubated in human serum prior to MIC determination.

[6] = test system: S. aureus GC 6469; test: MIC, broth microdilution
[7] = test system: Staph.; test: Range of MIC for Staph. strains, including MRSA; settings: Staphylococcus aureus, MRSA
[8] = test system: E. coli GC 2233; test: MIC, broth microdilution; settings: Escherichia coli, GC2233, E. coli GC 2233
[9] = test system: E. faecium GC 2243; test: MIC, broth microdilution
[10] = test system: E. coli GC 1073; test: MIC, broth microdilution
[11] = test system: E. faecalis GC 4555; test: MIC, broth microdilution; settings: Enterococcus faecalis
[12] = test system: E. coli GC 2236; test: MIC, broth microdilution
Description: as §1, §2

[13] = test system: c. albicans GC 3066; test: MIC, broth microdilution
[14] = test system: E. coli GC 6465; test: MIC, broth microdilution; settings: Escherichia coli, GC6465, E. coli GC 6465
[15] = test system: S. epidermidis GC 4935; test: MIC, broth microdilution
[16] = test system: S. pneumoniae+ GC 4465; test: MIC, broth microdilution
[17] = test system: S. aureus GC 4536; test: MIC, broth microdilution
[18] = test system: E. coli GC 2272; test: MIC, broth microdilution
[19] = test system: E. faecalis GC 2265; test: MIC, broth microdilution
[20] = test system: E. coli; test: Range of MIC for E. coli strains; settings: Escherichia coli
[21] = read-out: Range of MIC, Staph (Mouse Serum)
[22] = read-out: Range of MIC, Staph (Water)

## CCCN(CC(=O)Nc1cc(N(C)C)c2c(c1O)C(=O)C1=C(O)[C@]3(O)C(=O)C(C(N)=O)=C(O)[C@@H](N(C)C)[C@@H]3C[C@@H]1C2)C(=O)OCC [Example 15, ethyl 2-{[(5aR,6aS,7S,10aS)-9-(aminocarbonyl)-4,7-bis(dimethylamino)-1,8,10a,11-tetrahydroxy-10,12-dioxo-5,5a,6,6a,7,10,10a,12-octahydrotetracen-2-yl]amino}-2-oxoethyl(propyl)carbamate]
[1]; Staphylococcus aureus, GC1131, S. aureus GC 1131, Mouse Serum pre-incubation
  MIC: 2 µg/mL (≈ 3.11 µM)
[1]; Staphylococcus aureus, GC1131, S. aureus GC 1131, Water pre-incubation
  MIC: 4 µg/mL (≈ 6.21 µM)
[2]; GC6466, S. aureus GC 6466, Mouse Serum pre-incubation
  MIC: 2 µg/mL (≈ 3.11 µM)
[2]; GC6466, S. aureus GC 6466, Water pre-incubation
  MIC: 4 µg/mL (≈ 6.21 µM)
[3]; Staphylococcus aureus, GC1079, S. aureus GC 1079, Mouse Serum pre-incubation
  MIC: 2 µg/mL (≈ 3.11 µM)
[3]; Staphylococcus aureus, GC1079, S. aureus GC 1079, Water pre-incubation
  MIC: 4 µg/mL (≈ 6.21 µM)
[4]; Mouse Serum pre-incubation
  MIC: > 64 µg/mL
[4]; Water pre-incubation
  MIC: > 64 µg/mL
[5]; Streptococcus pyogenes, GC4563, S. pyogenes GC 4563, Mouse Serum pre-incubation
  MIC: 2 µg/mL (≈ 3.11 µM)
[5]; Streptococcus pyogenes, GC4563, S. pyogenes GC 4563, Water pre-incubation
  MIC: 2 µg/mL (≈ 3.11 µM)
[6]; Staphylococcus aureus, GC6469, S. aureus GC 6469, Mouse Serum pre-incubation
  MIC: 4 µg/mL (≈ 6.21 µM)
[6]; Staphylococcus aureus, GC6469, S. aureus GC 6469, Water pre-incubation
  MIC: 8 µg/mL (≈ 12.4 µM)
[7]; [21]
  MIC: 2 to 16 µg/mL (≈ 3.11 to 24.9 µM)
[7]; [22]
  MIC: 4 to 16 µg/mL (≈ 6.21 to 24.9 µM)
[8]; Mouse Serum pre-incubation
  MIC: > 64 µg/mL
[8]; Water pre-incubation
  MIC: > 64 µg/mL
[9]; Enterococcus faecium, GC2243, E. faecium GC 2243, Mouse Serum pre-incubation
  MIC: 8 µg/mL (≈ 12.4 µM)
[9]; Enterococcus faecium, GC2243, E. faecium GC 2243, Water pre-incubation
  MIC: 8 µg/mL (≈ 12.4 µM)
[10]; Escherichia coli, GC1073, E. coli GC 1073, Mouse Serum pre-incubation
  MIC: > 64 µg/mL
[10]; Escherichia coli, GC1073, E. coli GC 1073, Water pre-incubation
  MIC: > 64 µg/mL
[11]; GC4555, E. faecalis GC 4555, Mouse Serum pre-incubation
  MIC: 4 µg/mL (≈ 6.21 µM)
[11]; GC4555, E. faecalis GC 4555, Water pre-incubation
  MIC: 8 µg/mL (≈ 12.4 µM)
[12]; Escherichia coli, GC2236, E. coli GC 2236, Mouse Serum pre-incubation
  MIC: > 64 µg/mL
[12]; Escherichia coli, GC2236, E. coli GC 2236, Water pre-incubation
  MIC: 64 µg/mL (≈ 99.4 µM)
[13]; Candida albicans, GC3066
  MIC: > 64 µg/mL
[13]; c. albicans GC 3066, Water pre-incubation
  MIC: >64 UG/ML
[14]; Mouse Serum pre-incubation
  MIC: > 64 µg/mL
[14]; Water pre-incubation
  MIC: > 64 µg/mL
[15]; Staphylococcus epidermidis, GC4935, S. epidermidis GC 4935, Mouse Serum pre-incubation
  MIC: 16 µg/mL (≈ 24.9 µM)
[15]; Staphylococcus epidermidis, GC4935, S. epidermidis GC 4935, Water pre-incubation
  MIC: 16 µg/mL (≈ 24.9 µM)
[16]; Streptococcus pneumoniae, S. pneumoniae+ GC 4465, Mouse Serum pre-incubation
  MIC: 4 µg/mL (≈ 6.21 µM)
[16]; Streptococcus pneumoniae, S. pneumoniae+ GC 4465, Water pre-incubation
  MIC: 4 µg/mL (≈ 6.21 µM)
[17]; Staphylococcus aureus, GC4536, S. aureus GC 4536, Mouse Serum pre-incubation
  MIC: 2 µg/mL (≈ 3.11 µM)
[17]; Staphylococcus aureus, GC4536, S. aureus GC 4536, Water pre-incubation
  MIC: 4 µg/mL (≈ 6.21 µM)
[18]; Escherichia coli, GC2272, E. coli GC 2272, Mouse Serum pre-incubation
  MIC: > 64 µg/mL
[18]; Escherichia coli, GC2272, E. coli GC 2272, Water pre-incubation
  MIC: > 64 µg/mL
[19]; Enterococcus faecalis, GC2265, E. faecalis GC 2265, Mouse Serum pre-incubation
  MIC: 8 µg/mL (≈ 12.4 µM)
[19]; Enterococcus faecalis, GC2265, E. faecalis GC 2265, Water pre-incubation
  MIC: 8 µg/mL (≈ 12.4 µM)

## CCCCN(CC(=O)Nc1cc(N(C)C)c2c(c1O)C(=O)C1=C(O)[C@]3(O)C(=O)C(C(N)=O)=C(O)[C@@H](N(C)C)C3CC1C2)C(=O)OCc1oc(=O)oc1C (stereo partly drawn) [Example 109, (5-methyl-2-oxo-1,3-dioxol-4-yl)methyl 2-{[(7S,10aS)-9-(aminocarbonyl)-4,7-bis(dimethylamino)-1,8,10a,11-tetrahydroxy-10,12-dioxo-5,5a,6,6a,7,10,10a,12-octahydrotetracen-2-yl]amino}-2-oxoethyl(butyl)carbamate]
[1]; Staphylococcus aureus, GC1131, pre-incubation in mouse serum
  MIC: 1 µg/mL (≈ 1.35 µM)
[1]; Staphylococcus aureus, GC1131, pre-incubation in water
  MIC: 2 µg/mL (≈ 2.7 µM)
[1]; pre-incubation in water
  MIC: 4 UG/ML
[2]; GC6466, pre-incubation in mouse serum
  MIC: 0.5 µg/mL (≈ 0.674 µM)
[3]; Staphylococcus aureus, GC1079, pre-incubation in mouse serum
  MIC: 2 µg/mL (≈ 2.7 µM)
[3]; Staphylococcus aureus, GC1079, pre-incubation in water
  MIC: 4 µg/mL (≈ 5.39 µM)
[3]; pre-incubation in water
  MIC: 8 UG/ML
[5]; Streptococcus pyogenes, GC4563, pre-incubation in mouse serum
  MIC: < 0.06 µg/mL
[5]; pre-incubation in mouse serum
  MIC: 0.12 UG/ML
[6]; Staphylococcus aureus, GC6469, pre-incubation in mouse serum
  MIC: 1 µg/mL (≈ 1.35 µM)
[6]; pre-incubation in mouse serum
  MIC: 2 UG/ML
[7]; [21]
  MIC: 0.5 to 2 µg/mL (≈ 0.674 to 2.7 µM)
[7]; [22]
  MIC: 4 to 8 µg/mL (≈ 5.39 to 10.8 µM)
[9]; Enterococcus faecium, GC2243, pre-incubation in mouse serum
  MIC: 0.5 µg/mL (≈ 0.674 µM)
[9]; Enterococcus faecium, GC2243, pre-incubation in water
  MIC: 0.5 µg/mL (≈ 0.674 µM)
[9]; pre-incubation in water
  MIC: 1 UG/ML
[10]; Escherichia coli, GC1073, pre-incubation in mouse serum
  MIC: 0.5 µg/mL (≈ 0.674 µM)
[10]; pre-incubation in mouse serum
  MIC: 1 UG/ML
[11]; GC4555, pre-incubation in mouse serum
  MIC: 0.5 µg/mL (≈ 0.674 µM)
[11]; GC4555, pre-incubation in water
  MIC: 1 µg/mL (≈ 1.35 µM)
[12]; Escherichia coli, GC2236, pre-incubation in mouse serum
  MIC: 0.5 µg/mL (≈ 0.674 µM)
[12]; Escherichia coli, GC2236, pre-incubation in water
  MIC: 1 µg/mL (≈ 1.35 µM)
[12]; pre-incubation in water
  MIC: 2 UG/ML
[13]; Candida albicans, GC3066
  MIC: > 64 µg/mL
[13]; pre-incubation in water
  MIC: >64 UG/ML
[20]; 20 h, read-out: Range of MIC, E. coli (Mouse Serum)
  MIC: 0.25 to 1 µg/mL (≈ 0.337 to 1.35 µM)
[20]; read-out: Range of MIC, E. coli (Water)
  MIC: 1 to 4 µg/mL (≈ 1.35 to 5.39 µM)
[15]; Staphylococcus epidermidis, GC4935, pre-incubation in mouse serum
  MIC: 2 µg/mL (≈ 2.7 µM)
[15]; Staphylococcus epidermidis, GC4935, pre-incubation in water
  MIC: 4 µg/mL (≈ 5.39 µM)
[15]; pre-incubation in water
  MIC: 8 UG/ML
[16]; Streptococcus pneumoniae, pre-incubation in mouse serum
  MIC: 1 µg/mL (≈ 1.35 µM)
[16]; Streptococcus pneumoniae, pre-incubation in water
  MIC: 1 µg/mL (≈ 1.35 µM)
[16]; pre-incubation in water
  MIC: 2 UG/ML
[17]; Staphylococcus aureus, GC4536, pre-incubation in mouse serum
  MIC: 1 µg/mL (≈ 1.35 µM)
[17]; Staphylococcus aureus, GC4536, pre-incubation in water
  MIC: 2 µg/mL (≈ 2.7 µM)
[17]; pre-incubation in water
  MIC: 4 UG/ML
[18]; Escherichia coli, GC2272, pre-incubation in mouse serum
  MIC: 0.25 µg/mL (≈ 0.337 µM)
[18]; pre-incubation in mouse serum
  MIC: 0.50 UG/ML
[19]; Enterococcus faecalis, GC2265, pre-incubation in mouse serum
  MIC: 1 µg/mL (≈ 1.35 µM)
[19]; Enterococcus faecalis, GC2265, pre-incubation in water
  MIC: 2 µg/mL (≈ 2.7 µM)
[19]; pre-incubation in water
  MIC: 4 UG/ML
